Measurements as given in US10703746B2, “Mutant IDH1 inhibitors useful for treating cancer” (THE UNITED STATES OF AMERICA, AS REPRESENTED BY THE …, priority 2014, dated 2020).

What was measured:
[1] = target: IDH1 R132H (Homo sapiens, UniProt O75874, R132H); assay: IDH1 R132H enzymatic assay (NADPH depletion coupled to diaphorase/resazurin); assay type: biochemical
[2] = target: IDH1 R132C (Homo sapiens, UniProt O75874, R132C); assay: IDH1 R132C enzymatic assay (NADPH depletion coupled to diaphorase/resazurin); assay type: biochemical
IDH1 R132C, sequence (O75874 whole entry R132C): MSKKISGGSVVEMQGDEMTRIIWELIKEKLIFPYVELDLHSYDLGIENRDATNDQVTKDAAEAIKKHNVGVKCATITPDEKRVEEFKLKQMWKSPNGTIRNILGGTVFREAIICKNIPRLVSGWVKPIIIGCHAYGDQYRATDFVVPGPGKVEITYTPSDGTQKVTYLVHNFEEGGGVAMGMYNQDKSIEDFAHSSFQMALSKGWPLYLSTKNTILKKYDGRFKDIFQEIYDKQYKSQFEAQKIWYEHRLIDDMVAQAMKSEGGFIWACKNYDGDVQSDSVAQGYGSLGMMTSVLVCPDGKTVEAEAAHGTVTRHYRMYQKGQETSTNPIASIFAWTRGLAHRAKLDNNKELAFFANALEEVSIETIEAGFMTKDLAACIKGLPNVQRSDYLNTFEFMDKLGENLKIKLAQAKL
Summary of the method: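 NADPH depletion, read via diaphorase/resazurin coupling, after adding substrate at 0.6 mM α-KG and 0.012 mM NADPH. Beforehand, 0.00032 mg/mL enzyme sat with compound 30 min at room temperature in pH 6.5 potassium phosphate buffer with MgCl2, glycerol and BSA.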

[3] = IDH1 R132H enzymatic inhibition, IC50 class
[4] = IDH1 R132C enzymatic inhibition, IC50 class
[5] = enzymatic inhibition, IDH1 R132H
[6] = enzymatic inhibition, IDH1 R132C

IDH1 R132H, sequence (O75874 whole entry R132H): as the sequence (O75874 whole entry R132C) above, with C132H counted along it

IC50 [1, 3] | IC50 [2, 4] | IC50 [1, 5] | IC50 [2, 6] | SMILES
1000 to 5000 nM | 1000 to 5000 nM | – | – | Cc1ccc(CO)cc1-n1c2c(cc(-c3nc(-c4ccc(Cl)cc4)cs3)c1=O)C(=O)CCC2 [Compound 651]
300 to 1000 nM | < 300 nM | – | – | CCc1cccc(CC)c1-n1c(CC(C)C)c(C(=O)N2CCNC(C)(CO)C2)cc(-c2nc(-c3ccc(Cl)cc3)cs2)c1=O (stereo not shown) [Compound 273]
– | – | < 300 nM | < 300 nM | CCc1ncc(OC)cc1-n1c(C=C(C)C)c(C(=O)N2CCNCC2)cc(-c2nc(-c3ccc(Cl)cc3)cs2)c1=O [Compound 416]
1000 to 5000 nM | 1000 to 5000 nM | – | – | CCc1cccc(CC)c1-n1c2c(cc(-c3nc(-c4ccccc4Cl)cs3)c1=O)C(=O)CC(C)(C)C2 [Compound 213]
1000 to 5000 nM | 1000 to 5000 nM | – | – | CCc1cccc(CC)c1-n1c(C)c(C(=O)N2CC(O)C2)cc(-c2nc(-c3ccc(Cl)cc3)cs2)c1=O [Compound 242]
< 300 nM | < 300 nM | – | – | CCc1ccc(N(C)C)cc1-n1c(C=C(C)C)c(C(=O)N2CCNCC2)cc(-c2nc(-c3ccc(Cl)cc3)cs2)c1=O [Compound 333]
1000 to 5000 nM | 300 to 1000 nM | – | – | CCc1cccc(CC)c1-n1c(CC(C)C)c(C(=O)N2CCCC(CO)C2)cc(-c2nc(-c3ccc(Cl)cc3)cs2)c1=O (stereo not shown) [Compound 34]
1000 to 5000 nM | 1000 to 5000 nM | – | – | COc1ccc(OC)c(-n2c3c(cc(-c4nc(-c5ccc(Cl)cc5)cs4)c2=O)C=CC(C)(C)C3)c1 [Compound 144]
1000 to 5000 nM | 1000 to 5000 nM | – | – | CCc1cccc(CC)c1-n1c(C)c(C(=O)NC(C)C)cc(-c2nc(-c3ccc(Cl)cc3)cs2)c1=O [Compound 311]
< 300 nM | < 300 nM | – | – | CCc1ncc(OC)cc1-n1c(C=C(C)C)c(C(=O)N2CCNCC2)cc(-c2nc(-c3ccc(C(F)(F)F)cc3)cs2)c1=O [Compound 636]
< 300 nM | < 300 nM | – | – | CCc1cccc(CC)c1-n1c(C=C(C)C)c(C(=O)N2CCNC(=O)C2(C)C)cc(-c2nc(-c3ccc(Cl)cc3)cs2)c1=O [Compound 650]
< 300 nM | 300 to 1000 nM | – | – | CCc1cccc(CC)c1-n1c(C)c(C(=O)N2CCNCC2)cc(-c2nc(-c3ccc(Cl)cc3)cs2)c1=O [Compound 300]
– | – | < 300 nM | < 300 nM | CC(C)=Cc1c(C(=O)N2CCNCC2)cc(-c2nc(-c3ccc(Cl)cc3)cs2)c(=O)n1-c1ccccc1OCC(F)(F)F [Compound 589]
1000 to 5000 nM | 1000 to 5000 nM | – | – | COc1cccc(C)c1-n1c2c(cc(-c3nc(-c4ccc(Cl)cc4)cs3)c1=O)C(=O)CC(C)(C)C2 [Compound 52]
> 20000 nM | 1000 to 5000 nM | – | – | CCc1cccc(CC)c1-n1c(C)c(C(=O)NC2CCCC2)cc(-c2nc(-c3ccc(Cl)cc3)cs2)c1=O [Compound 7]
< 300 nM | < 300 nM | – | – | CC(C)=Cc1c(C(=O)N2CCNCC2)cc(-c2nc(-c3ccc(Cl)cc3)cs2)c(=O)n1-c1cc(C)cnc1OC(C)C [Compound 401]
5000 to 20000 nM | 5000 to 20000 nM | – | – | COc1ccc(OC)c(-n2c3c(cc(C(=O)NCc4ccc(Cl)cc4)c2=O)C(=O)CC(C)(C)C3)c1 [Compound 93]
– | – | 5000 to 20000 nM | 5000 to 20000 nM | Cc1ccc(CN2CCN(C)CC2)cc1-n1c2c(cc(-c3nc(-c4ccc(Cl)cc4)cs3)c1=O)C(=O)CC(C)(C)C2 [Compound 460]
< 300 nM | < 300 nM | – | – | CCc1ccc(C)cc1-n1c(C=C(C)C)c(C(=O)N2CCNCC2)cc(-c2nc(-c3ccc(Cl)cc3)cs2)c1=O [Compound 656]
1000 to 5000 nM | 1000 to 5000 nM | – | – | COc1ccc(OC)c(-n2c3c(cc(-n4ccc(-c5ccccc5)n4)c2=O)C(=O)CC(C)(C)C3)c1 [Compound 191]
5000 to 20000 nM | 5000 to 20000 nM | – | – | COc1ccc(OC)c(-n2c3c(cc(-n4cc(-c5ccccc5)nn4)c2=O)C(=O)CC(C)(C)C3)c1 [Compound 261]

IC50 [1, 3] | IC50 [2, 4] | IC50 [1, 5] | IC50 [2, 6] | SMILES
1000 to 5000 nM | 1000 to 5000 nM | – | – | COc1ccc(OC)c(-n2c3c(cc(-c4nc(-c5ccc(Cl)cc5)cs4)c2=O)C(=O)NCC3)c1 [Compound 244]
300 to 1000 nM | 300 to 1000 nM | – | – | CCc1cccc(CC)c1-n1c(C(C)C)c(C(=O)N2CCNC(=O)C2)cc(-c2nc(-c3ccc(Cl)cc3)cs2)c1=O [Compound 168]
< 300 nM | < 300 nM | – | – | COc1ccc(F)cc1-n1c(C=C(C)C)c(C(=O)N2CCNCC2)cc(-c2nc(-c3ccc(Cl)cc3)cs2)c1=O [Compound 630]
< 300 nM | < 300 nM | – | – | CC1(C)CC(=O)c2cc(-c3nc(-c4ccc(Cl)cc4)cs3)c(=O)n(-c3ccccc3Cl)c2C1 [Compound 167]
– | – | 1000 to 5000 nM | 5000 to 20000 nM | Cc1ccccc1-n1c(C)c(C(=O)N2CCNCC2)cc(-c2nc(-c3ccc(Cl)cc3)cs2)c1=O [Compound 470]
1000 to 5000 nM | 1000 to 5000 nM | – | – | CCc1cccc(CC)c1-n1c(C)c(C(=O)N2CCC(NC)C2)cc(-c2nc(-c3ccc(Cl)cc3)cs2)c1=O (stereo not shown) [Compound 207]
– | – | 1000 to 5000 nM | 1000 to 5000 nM | Cc1cccc(CO)c1-n1c2c(cc(-c3nc(-c4ccc(Cl)cc4)cs3)c1=O)C(=O)CCC2 [Compound 428]
5000 to 20000 nM | 1000 to 5000 nM | – | – | CCc1cccc(CC)c1-n1c2c(cc(-c3nc(-c4ccccc4C(F)(F)F)cs3)c1=O)C(=O)CC(C)(C)C2 [Compound 230]
300 to 1000 nM | 300 to 1000 nM | – | – | COc1ccc(C(F)(F)F)cc1-n1c(C=C(C)C)c(C(=O)N2CCNCC2)cc(-c2nc(-c3ccc(Cl)cc3)cs2)c1=O [Compound 383]
1000 to 5000 nM | 1000 to 5000 nM | – | – | COc1ccc(OC)c(-n2c3c(cc(-c4ccn(-c5ccccc5)n4)c2=O)C(=O)CC(C)(C)C3)c1 [Compound 158]
> 20000 nM | 1000 to 5000 nM | – | – | COc1ccc(-n2c3c(cc(-c4nc(-c5ccc(Cl)cc5)cs4)c2=O)C(=O)CC(C)(C)C3)c(Cl)c1 [Compound 663]
1000 to 5000 nM | 5000 to 20000 nM | – | – | CC(=O)Nc1ccccc1-n1c2c(cc(-c3nc(-c4ccc(Cl)cc4)cs3)c1=O)C(=O)CC(C)(C)C2 [Compound 105]
< 300 nM | < 300 nM | – | – | CC(C)=Cc1c(C(=O)N2CCNCC2)cc(-c2nc(-c3ccc(Cl)cc3)cs2)c(=O)n1-c1c(Cl)cccc1OC(C)C [Compound 367]
1000 to 5000 nM | 1000 to 5000 nM | – | – | COc1cccc(F)c1-n1c2c(cc(-c3nc(-c4ccc(Cl)cc4)cs3)c1=O)C(=O)CC(C)(C)C2 [Compound 668]
< 300 nM | < 300 nM | – | – | CCc1cccc(CC)c1-n1c(CC(C)C)c(C(=O)N2CCNCC2)cc(-c2ccn(-c3ccc(Cl)cc3)n2)c1=O [Compound 184]
– | – | < 300 nM | 300 to 1000 nM | CCc1ncc(OC)cc1-n1c(C=C(C)C)c(C(=O)N2CCNCC2)cc(-c2nc(-c3ccc(C(F)F)cc3)cs2)c1=O [Compound 427]
– | – | < 300 nM | < 300 nM | CCc1cccc(CC)c1-n1c(C=C(C)C)c(C(=O)N2CCNCC2CC(=O)O)cc(-c2nc(-c3ccc(Cl)cc3)cs2)c1=O (stereo not shown) [Compound 599]
1000 to 5000 nM | 1000 to 5000 nM | – | – | CCc1cccc(CC)c1-n1c(C)c(C(=O)N(C)CCN)cc(-c2nc(-c3ccc(Cl)cc3)cs2)c1=O [Compound 152]
1000 to 5000 nM | 300 to 1000 nM | – | – | CCc1cccc(CC)c1-n1c(C)c(C(=O)N2CCN[C@H](CO)C2)cc(-c2nc(-c3ccc(Cl)cc3)cs2)c1=O [Compound 16]
300 to 1000 nM | 300 to 1000 nM | – | – | CCc1cccc(CC)c1-n1c(CC(C)C)c(C(=O)N2CCNCC2)cc(-c2nc(-c3ccc(OC)nc3)c(C)s2)c1=O [Compound 322]
